target: NMDA receptor composed of four subunits including 2 sets of heterodimers of NR1 and NR2B (human GRIN1 and GRIN2B expressed in HEK293 cell) (Homo sapiens, UniProt Q13224); assay: NR2B Ca^2+ influx assay; format: cell-based; conditions: 10 μM final compound concentration; 30 μM glutamic acid and 30 μM glycine; HEK293 cells expressing GRIN1 and GRIN2B; Fluo-4 fluorescence
Excerpt: To confirm the “antagonistic action on an NMDA receptor containing the NR2B subunit” of the compound of the present invention, human embryonic kidney cell expressing the “NMDA receptor composed of four subunits including 2 sets of heterodimers of NR1 and NR2B”, specifically HEK293 cell expressing human glutamate ionotropic receptor NMDA type subunit 1 (GRIN1) and human glutamate ionotropic receptor NMDA type subunit 2B (GRIN2B), was used and the activation suppressive effect on the receptors was measured.
HEK293 cells that express GRIN1 and GRIN2B were purchased from ChanTest (Human NMDA (NR1/NR2B) Receptor-expressing, stable replicating cell line (HEK293) catalog No. CT6121).
As an index of the NMDA receptor activation, intracellular calcium ion (Ca^2+) influx caused by the binding of glycine and glutamic acid with NR1 and NR2B, respectively, was used.
HEK293 cells that express GRIN1 and GRIN2B were cultured in DMEM/F-12 (COSMO BIO, 10-092-CM) medium added with 10% FBS (fetal bovine serum, AusGene), 100 units/mL penicillin, 100 μg/mL streptomycin, 500 μg/mL neomycin, 100 μg/mL Zeocin (registered trade mark, Invitrogen), 5 μg/mL Blasticidin in a cell culture flask in an incubator (under 37° C., 5% CO2).
The cells were detached from the flask with trypsin the day before the assay, suspended in a seeding medium (DMEM (Invitrogen, 31053) added with 10% FBS, 100 units/mL penicillin, 100 μg/mL streptomycin) at 8×10^5 cells/mL, seeded by 25 μL per well in a 384-well plate (Falcon, 356663) at 20000 cells/well, and cultured overnight in an incubator. On the day of the assay, tetracycline (Wako Pure Chemical Industries, Ltd., 209-16561) was diluted with the seeding medium at 2 μg/mL, added at 25 μL/well to the plate seeded with the cells, and cultured for 2 hr in an incubator. Thereafter, the medium was removed, and the cells were washed with 50 μL/well assay buffer (137 mM NaCl, 4 mM KCl, 1.8 mM CaCl2, 10 mM HEPES (pH 7.2), 10 mM Glucose, 0.1% BSA). Then, a loading buffer (assay buffer added with 2.5 μM Fluo-4AM, 2 mM Amaranth, 1 mM Tartrazine) was added at 25 μL/well, and the cells were incubated in the incubator for 30 min, and at room temperature for 15 min. A solution of the Example compound diluted with the above-mentioned assay buffer at 30 μM (final concentration 10 μM) was added at 25 μL/well, and the cells were left standing for 15 min at room temperature. Using FDSS7000EX/μCELL (Hamamatsu Photonics K.K.), an assay buffer containing 30 μM glutamic acid and 30 μM glycine was added at 25 μL/well, and fluorescence signals with wavelengths of Excitation 480 nm and Emission 540 nm were measured every 3 seconds for 5 min. The inhibitory activity was calculated as a relative activity value (inhibitory rate) that inhibits 100% of the cumulative value of the fluorescence value of a well added with an assay buffer free of glutamic acid, glycine, relative to the cumulative value of the fluorescence value of each well.

Chain of NMDA receptor composed of four subunits including 2 sets of heterodimers of NR1 and NR2B (human GRIN1 and GRIN2B expressed in HEK293 cell) (Q13224 27-1484, other chains not shown): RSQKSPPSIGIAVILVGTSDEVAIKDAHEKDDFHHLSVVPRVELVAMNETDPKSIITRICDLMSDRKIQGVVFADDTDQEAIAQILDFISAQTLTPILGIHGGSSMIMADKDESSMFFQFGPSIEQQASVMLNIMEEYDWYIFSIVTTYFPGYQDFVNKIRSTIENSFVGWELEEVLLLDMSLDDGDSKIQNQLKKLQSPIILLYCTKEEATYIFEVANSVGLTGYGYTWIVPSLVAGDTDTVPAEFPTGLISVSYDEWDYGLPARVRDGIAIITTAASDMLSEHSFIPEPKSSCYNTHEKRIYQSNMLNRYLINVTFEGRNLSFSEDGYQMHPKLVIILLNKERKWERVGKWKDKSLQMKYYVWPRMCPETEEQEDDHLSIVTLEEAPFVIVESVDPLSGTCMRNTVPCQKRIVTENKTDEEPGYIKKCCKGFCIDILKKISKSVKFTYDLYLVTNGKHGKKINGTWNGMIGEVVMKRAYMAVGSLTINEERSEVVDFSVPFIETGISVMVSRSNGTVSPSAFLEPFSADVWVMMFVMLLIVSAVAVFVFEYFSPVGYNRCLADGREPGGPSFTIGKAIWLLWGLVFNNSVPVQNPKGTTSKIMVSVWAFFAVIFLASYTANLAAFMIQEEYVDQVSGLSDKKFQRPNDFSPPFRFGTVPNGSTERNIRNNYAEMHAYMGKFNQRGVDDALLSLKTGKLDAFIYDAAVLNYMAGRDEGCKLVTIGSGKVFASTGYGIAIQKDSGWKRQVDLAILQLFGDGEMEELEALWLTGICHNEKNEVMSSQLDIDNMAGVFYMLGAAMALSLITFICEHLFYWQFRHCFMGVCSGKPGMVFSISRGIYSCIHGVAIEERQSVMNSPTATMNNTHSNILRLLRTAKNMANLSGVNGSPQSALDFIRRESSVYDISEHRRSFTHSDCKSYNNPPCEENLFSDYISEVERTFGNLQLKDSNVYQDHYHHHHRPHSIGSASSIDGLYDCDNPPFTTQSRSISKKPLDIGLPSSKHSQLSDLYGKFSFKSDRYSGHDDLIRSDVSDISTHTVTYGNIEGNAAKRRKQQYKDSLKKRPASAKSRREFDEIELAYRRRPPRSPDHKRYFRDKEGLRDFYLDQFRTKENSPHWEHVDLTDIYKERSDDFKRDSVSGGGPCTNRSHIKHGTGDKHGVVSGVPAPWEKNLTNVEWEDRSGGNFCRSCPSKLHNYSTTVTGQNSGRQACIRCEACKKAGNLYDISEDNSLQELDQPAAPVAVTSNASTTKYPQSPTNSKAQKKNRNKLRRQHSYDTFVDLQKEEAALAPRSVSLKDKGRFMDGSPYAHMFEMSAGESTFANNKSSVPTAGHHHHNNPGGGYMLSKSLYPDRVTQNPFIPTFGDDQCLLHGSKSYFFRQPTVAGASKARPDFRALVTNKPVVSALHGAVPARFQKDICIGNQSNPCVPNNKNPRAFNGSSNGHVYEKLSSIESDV

Compared with `COc1cnc(C#N)cc1CNC(=O)c1ccc(OC(F)(F)F)cc1` [Example 29, N-[(2-cyano-5-methoxypyridin-4-yl)methyl]-4-(trifluoromethoxy)-bezamide], `COc1cnc(C#N)cc1CNC(=O)c1ccc(C(F)(F)F)c(F)c1` [Example 30, N-[(2-cyano-5-methoxypyridin-4-yl)methyl]-3-fluoro-4-(trifluoromethyl)-bezamide] is lower in “inhibitory rate (10 μM compound concentration)” value: 92 for the first, 87 for the second.

same assay, conditions: 10 μM final compound concentration; 30 μM glutamic acid and 30 μM glycine; HEK293 cells expressing GRIN1 and GRIN2B; Fluo-4 fluorescence; read-out: inhibitory rate (10 μM compound concentration)

Going from `N#Cc1ccc(Br)c(CNC(=O)c2ccc(OC(F)(F)F)c(F)c2)c1` [Example 1, N-[(2-bromo-5-cyanophenyl)methyl]-3-fluoro-4-(trifluoromethoxy)benzamide] to `COc1ccc(C#N)cc1CNC(=O)c1ccc(OC(F)(F)F)c(F)c1` [Example 11, N-[(5-cyano-2-methoxyphenyl)-methyl]-3-fluoro-4-(trifluoromethoxy)-benzamide], the inhibition at 10 µM rises from 86% to 96%.

Compared with `N#Cc1ccc(Br)c(CNC(=O)c2cnc(OC(F)F)c(F)c2)c1` [Example 2, N-[(2-bromo-5-cyanophenyl)methyl]-6-(difluoromethoxy)-5-fluoropyridine-3-carboxamide], `Cc1ccc(C#N)cc1CNC(=O)c1cnc(OC(F)F)c(F)c1` [Example 8, N-[(5-cyano-2-methylphenyl)-methyl]-6-(difluoromethoxy)-5-fluoropyridine-3-carboxamide] is lower in inhibition at 10 µM: 92% for the first, 83% for the second.

Going from `N#Cc1ccc(Br)c(CNC(=O)c2ccc(OC(F)F)c(F)c2)c1` [Example 3, N-[(2-bromo-5-cyanophenyl)methyl]-4-(difluoromethoxy)-3-fluorobenzamide] to `COc1ccc(C#N)cc1CNC(=O)c1ccc(OC(F)F)c(F)c1` [Example 10, N-[(5-cyano-2-methoxyphenyl)-methyl]-4-(difluoromethoxy)-3-fluorobenzamide], the inhibition at 10 µM rises from 93% to 95%.

Going from `N#Cc1ccc(C2CC2)c(CNC(=O)c2ccc(OC(F)(F)F)c(F)c2)c1` [Example 4, N-[(5-cyano-2-cyclopropylphenyl)-methyl]-3-fluoro-4 (trifluoromethoxy)-benzamide] to `N#Cc1ccc(C2CC2)c(CNC(=O)c2ccc(OC(F)F)c(F)c2)c1` [Example 6, N-[(5-cyano-2-cyclopropylphenyl)-methyl]-4-(difluoromethoxy)-3-fluorobenzamide], the inhibition at 10 µM falls from 94% to 93%.

Going from `N#Cc1ccc(C2CC2)c(CNC(=O)c2cnc(OC(F)F)c(F)c2)c1` [Example 5, N-[(5-cyano-2-cyclopropylphenyl)-methyl]-6-(difluoromethoxy)-5-fluoropyridine-3-carboxamide] to `N#Cc1ccc(F)c(CNC(=O)c2cnc(OC(F)F)c(F)c2)c1` [Example 12, N-[(5-cyano-2-fluorophenyl)methyl]-6-(difluoromethoxy)-5-fluoropyridine-3-carboxamide], the inhibition at 10 µM falls from 95% to 91%.

Going from `COc1ccc(C#N)cc1CNC(=O)c1cnc(OC(F)F)c(F)c1` [Example 7, N-[(5-cyano-2-methoxyphenyl)methyl]-6-(difluoromethoxy)-5-fluoropyridine-3-carboxamide] to `N#Cc1ccc(OCC(F)F)c(CNC(=O)c2cnc(OC(F)F)c(F)c2)c1` [Example 14, N-{[5-cyano-2-(2,2-difluoroethoxy)-phenyl]-methyl}-6-(difluoromethoxy)-5-fluoropyridine-3-carboxamide], the inhibition at 10 µM falls from 94% to 92%.

Compared with `N#Cc1ccc(OCC(F)(F)F)c(CNC(=O)c2cnc(OC(F)F)c(F)c2)c1` [Example 13, N-{[5-cyano-2-(2,2,2-trifluoroethoxy)-phenyl]-methyl}-6-(difluoromethoxy)-5-fluoropyridine-3-carboxamide], `COc1cc(C#N)cc(CNC(=O)c2cnc(OC(F)F)c(F)c2)c1F` [Example 25, N-[(5-cyano-2-fluoro-3-methoxyphenyl)-methyl]-6-(difluoromethoxy)-5-fluoropyridine-3-carboxamide] is lower in inhibition at 10 µM: 93% for the first, 89% for the second.

Compared with `COc1c(C#N)ccc(F)c1CNC(=O)c1cnc(OC(F)F)c(F)c1` [Example 15, N-[(3-cyano-6-fluoro-2-methoxyphenyl)-methyl]-(difluoromethoxy)-5-fluoropyridine-3-carboxamide], `Cc1c(C#N)ccc(F)c1CNC(=O)c1cnc(OC(F)F)c(F)c1` [Example 18, N-[(3-cyano-6-fluoro-2-methylphenyl)-methyl]-6-(difluoromethoxy)-5-fluoropyridine-3-carboxamide] is lower in inhibition at 10 µM: 89% for the first, 66% for the second.

`COc1ncc(C#N)cc1CNC(=O)c1ccc(C(F)(F)F)s1` [Example 16, N-[(5-cyano-2-methoxypyridin-3-yl)methyl]-5-(trifluoromethyl)thiophene-2-carboxamide] and `COc1ncc(C(=O)NCc2cc(C#N)cc(F)c2OC)cc1F` [Example 21, N-[(5-cyano-3-fluoro-2-methoxyphenyl)-methyl]-5-fluoro-6-methoxypyridine-3-carboxamide] are the same in inhibition at 10 µM: 94% for the first, 94% for the second.

Going from `COc1ccc(C#N)nc1CNC(=O)c1cnc(OC(F)F)c(F)c1` [Example 19, N-[(6-cyano-3-methoxypyridin-2-yl)methyl]-6-(difluoromethoxy)-5-fluoropyridine-3-carboxamide] to `COc1cnc(C#N)cc1CNC(=O)c1cnc(OC(F)F)c(F)c1` [Example 28, N-[(2-cyano-5-methoxypyridin-4-yl)methyl]-6-(difluoromethoxy)-5-fluoropyridine-3-carboxamide], the inhibition at 10 µM rises from 89% to 91%.

Compared with `COc1c(F)cc(C#N)cc1CNC(=O)c1cnc(OC(F)F)c(F)c1` [Example 20, N-[(5-cyano-3-fluoro-2-methoxyphenyl)-methyl]-6-(difluoromethoxy)-5-fluoropyridine-3-carboxamide], `COc1cc(F)c(C#N)cc1CNC(=O)c1cnc(OC(F)F)c(F)c1` [Example 23, N-[(5-cyano-4-fluoro-2-methoxyphenyl)-methyl]-6-(difluoromethoxy)-5-fluoropyridine-3-carboxamide] is higher in inhibition at 10 µM: 97% for the first, 98% for the second.

Going from `COc1cnc(C#N)c(F)c1CNC(=O)c1cnc(OC(F)F)c(F)c1` [Example 22, N-[(2-cyano-3-fluoro-5-methoxypyridin-4-yl)methyl]-6-(difluoromethoxy)-5-fluoropyridine-3-carboxamide] to `COc1c(CNC(=O)c2cnc(OC(F)F)c(F)c2)cc(C#N)nc1C` [Example 27, N-[(6-cyano-3-methoxy-2-methyl-pyridin-4-yl)methyl]-6-(difluoromethoxy)-5-fluoropyridine-3-carboxamide], the inhibition at 10 µM falls from 94% to 77%.

Compared with `COc1cc(C#N)cc(CNC(=O)c2cnc(OC(F)F)c(F)c2)c1` [Example 24, N-[(3-cyano-5-methoxyphenyl)-methyl]-6-(difluoromethoxy)-5-fluoropyridine-3-carboxamide], `COc1cc(C#N)cc(CNC(=O)c2cnc(OC)c(F)c2)c1F` [Example 26, N-[(5-cyano-2-fluoro-3-methoxyphenyl)-methyl]-5-fluoro-6-methoxypyridine-3-carboxamide] is lower in inhibition at 10 µM: 97% for the first, 75% for the second.

test system: not given; assay: not given; conditions: rodents; cited from earlier work

For `C[C@@H](CN1CCC(Cc2ccccc2)CC1)[C@@H](O)c1ccc(O)cc1` [Ro25-6981], the “number of occurrence and depth of cortical spreading depression” value is given as “suppress the number of occurrence and the depth of cortical spreading depression”.

Reference: patent US12637418B2, “Heterocyclic compounds as antagonist of NMDA” (TAKEDA PHARMACEUTICAL COMPANY LIMITED, priority 2019, dated 2026)
